Source: EP4553077A1 (Kinoteck Therapeutics Co., Ltd, priority 2022, dated 2024)

Molecular target: Ba/F3-TEL-FGFR2 (Homo sapiens, UniProt P21802+P41212)
Assay: Cell viability (proliferation inhibition) of Ba/F3 cells, CellTiter Glo
Conditions: read-out: Ba/F3 cell FGFR2 (IC50 nM), 72 h

Sequence of Ba/F3-TEL-FGFR2 (P21802 481-770 limits assumed, one chain of several): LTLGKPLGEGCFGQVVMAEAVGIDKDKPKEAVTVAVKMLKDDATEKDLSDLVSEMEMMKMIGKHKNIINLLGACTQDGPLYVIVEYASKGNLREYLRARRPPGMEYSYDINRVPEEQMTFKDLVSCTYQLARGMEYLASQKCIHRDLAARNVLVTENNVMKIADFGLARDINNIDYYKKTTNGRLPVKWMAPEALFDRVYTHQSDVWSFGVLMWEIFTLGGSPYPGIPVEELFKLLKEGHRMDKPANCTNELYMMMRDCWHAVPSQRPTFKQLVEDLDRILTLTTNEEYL

## C=C(C)C(=O)Nc1ccc(-c2c(-c3ccc(N=S4(=O)CCC(F)(F)CC4)cc3)c3c(N)ncnc3n2C)c(F)c1 [Compound 6, N-(4-(4-amino-5-(4-(4,4-difluoro-1-oxotetrahydro-2H-λ^6-thiopyran-1-imino)phenyl) -7-methyl-7H-pyrrolo [2,3-d]pyrimidin-6-yl) -3-fluorophenyl) methacrylamide]
  IC50: 9.3 nM

## C=C(C)C(=O)Nc1ccc(-c2c(-c3ccc(N=S(=O)(N4CCC4)C(F)(F)F)cc3)c3c(N)ncnc3n2C)cc1 (centres unmarked) [Compound 51, N-(4-(4-amino-5-(4-((azetidin-1-yl(oxo)(trifluoromethyl)-λ^6-sulfanylidene)amino)phenyl) -7-methyl-7H-pyrrolo [2,3-d]pyrimidin-6-yl)phenyl) methacrylamide]
  IC50: 19.1 nM

## C=C(C)C(=O)Nc1ccc(-c2c(C3=CCC(=S(=O)(CC)C(C)C)C=C3)c3c(N)ncnc3n2C)cc1 (centres unmarked) [Compound 62, N-(4-(4-amino-5-(4-(ethyl(isopropyl)(oxo)-1λ^6-sulfanylidene)phenyl) -7-methyl-7H-pyrrolo[2,3-d]pyrimidin-6-yl)-phenyl)methacrylamide]
  IC50: 9.2 nM

## C=C(C)C(=O)Nc1ccc(-c2c(-c3cc(F)c(N=S4(=O)CCCC4)c(F)c3)c3c(N)ncnc3n2C)cc1 [Compound 27, N-(4-(4-amino-5-(3,5-difluoro-4-((1-oxotetrahydro-1 λ^6-thiophene-1-ylidene)amino)phenyl) -7-methyl-7H-pyrrolo [2,3-d]pyrimidin-6-yl)phenyl) methacrylamide]
  IC50: 26 nM

## C=C(C)C(=O)Nc1ccc(-c2c(-c3ccc(N=S(=O)(CC)CC)cc3)c3c(N)ncnc3n2C)c(C(F)F)c1 [Compound 73]
  IC50: 11.1 nM

## CC#CC(=O)Nc1ccc(-c2c(-c3ccc(N=S4(=O)CCCC4)cc3)c3c(N)ncnc3n2C)c(F)c1 [Compound 112, N-(4-(4-amino-7-methyl-5-(4-((1-tetrahydro-1λ^6-thiophene-1-ylidene)amino)phenyl) -7H-pyrrolo [2,3-d]pyrimidin-6-yl) -3-fluorophenyl) but-2-ynamide]
  IC50: 2 nM

## C=C(C)C(=O)Nc1ccc(-c2c(-c3ccc(N=S(=O)(CC)CC)cc3)c3c(N)ncnc3n2CCOC)c(F)c1 [Compound 86]
  IC50: 67.4 nM

## C=C(C)C(=O)Nc1ccc(-c2c(-c3ccc(N=S(=O)(N(C)C)C(F)(F)F)cc3)c3c(N)ncnc3n2C)cc1 (centres unmarked) [Compound 28]
  IC50: 0.9 nM

## C=C(C)C(=O)Nc1ccc(-c2c(-c3ccc(N=S4(=O)CCCCC4)cc3)c3c(N)ncc(C#N)c3n2C)c(F)c1 [Compound 64, N-(4-(4-amino-7-cyano-1-methyl-3-(4-((1-oxotetrahydro-2H-1λ^6-thiopyran-1-ylidene)amino)phenyl) -1H pyrrolo [3,2-c]pyridine-2-yl) -3-fluorophenyl) methacrylamide]
  IC50: 658 nM

## C=C(C)C(=O)Nc1ccc(-c2c(-c3ccc(N=S4(=O)CCCCC4)c(Cl)c3)c3c(N)ncnc3n2C)cc1 [Compound 40, N-(4-(4-amino-5-(3-chloro-4-((1-oxotetrahydro-2H-1λ^6 - thiopyran-1-ylidene)amino)phenyl) -7-methyl-7H-pyrrolo [2,3-d]pyrimidin-6-yl)phenyl) methacrylamide]
  IC50: 7.7 nM

## C=C(C)C(=O)Nc1ccc(-c2c(-c3ccc(N=S4(=O)CCC4)c(F)c3)c3c(N)ncnc3n2C)c(C)c1 [Compound 99]
  IC50: 2.7 nM

## C=C(C)C(=O)Nc1ccc(-c2c(-c3ccc(N=S4(=O)CCOCC4)c(F)c3)c3c(N)ncnc3n2C)cc1 [Compound 41]
  IC50: 124 nM

## C=C(C)C(=O)Nc1ccc(-c2c(-c3ccc(N=S4(=O)CC(C)(C)C4)c(F)c3)c3c(N)ncnc3n2C)cc1 [Compound 57, N-(4-(4-amino-5-(4-((3,3-dimethyl-1-oxo-1λ^6-thiocyclobutyl-1-ylidene)amino) -3-fluorophenyl) -7-methyl-7H-pyrrolo [2,3-d]pyrimidin-6-yl)phenyl) methacrylamide]
  IC50: 17.4 nM

## C=C(C)C(=O)Nc1ccc(-c2c(-c3ccc(N=S4(=O)CCCCC4)c(F)c3)c3c(N)ncnc3n2C)c(OC)c1 [Compound 14, N-(4-(4-amino-5-(3-fluoro-4-((1-oxotetrahydro-2H-1 λ^6-thiopyran-1-ylidene)amino)phenyl)-7-methyl-7H-pyrrolo[2,3-d]pyrimidin-6-yl)-3-methoxyphenyl) methacrylamide]
  IC50: 9.9 nM

## CN(C)C/C=C/C(=O)N1CC=C(c2c(-c3ccc(N=S4(=O)CCCCC4)cc3)c3c(N)ncnc3n2C)CC1 [Compound 67, (E)-1-(4-(4-amino-7-methyl-5-(4-((1-oxotetrahydro-2H-1λ^6-thiopyran-1-ylidene)amino)phenyl) -7H-pyrrolo [2,3-d]pyrimidin-6-yl) -3,6-dihydropyridine-1 (2H)-yl) -4-(dimethylamino) but-2-enyl-1-one]
  IC50: 105 nM

## N- (4- (4-amino-5- (4- (cyclopentyl (methyl) (oxo) - λ^6-sulfanylidene) amino) phenyl) -7-methyl-7H-pyrrole [2,3-d] pyrimidin-6-yl) -3-fluorophenyl) methacrylamide [Compound 49]
  IC50: 12.8 nM

## C=C(C)C(=O)Nc1ccc(-c2c(-c3ccc(N=S(=O)(C4CC4)C4CC4)cc3)c3c(N)ncnc3n2C)cc1 [Compound 93, N-(4-(4-amino-5-(4-((dicyclopropyl (oxo)-λ^6-sulfaneylidene)amino)phenyl)-7-methyl-7H-pyrrolo [2,3-d]pyrimidin-6-yl)phenyl) methacrylamide]
  IC50: 31.7 nM

## C=C(C)C(=O)Nc1ccc(-c2c(-c3ccc(N=S(=O)(CC)CC)cc3)c3c(N)ncnc3n2CC(F)(F)F)c(F)c1 [Compound 103]
  IC50: 13.9 nM

## C=C(C)C(=O)Nc1ccc(-c2c(-c3ccc(N=S4(=O)CC5(COC5)C4)c(F)c3)c3c(N)ncnc3n2C)cc1 [Compound 11]
  IC50: 172 nM

## C=C(C)C(=O)Nc1ccc(-c2c(-c3ccc(N=S4(=O)CC(C)(C)C4)c(F)c3)c3c(N)ncnc3n2C)c(F)c1 [Compound 106, N-(4-(4-amino-5-(4-((3,3-dimethyl-1-oxo-1 λ^6-thiocyclobutan-1-ylidene)amino) -3-fluorophenyl) -7-methyl-7H-pyrrolo [2,3-d]pyrimidin-6-yl) -3-fluorophenyl) methacrylamide]
  IC50: 2.2 nM

## C=C(C)C(=O)Nc1ccc(-c2c(-c3ccc(N=S(=O)(N(C)CC)C(F)(F)F)c(F)c3)c3c(N)ncnc3n2C)cc1 (centres unmarked) [Compound 53, N-(4-(4-amino-5-(4-(((ethyl(methyl)amino)(oxo)(trifluoromethyl)-λ^6-sulfanylidene)amino)-3-fluorophenyl)-7-methyl-7H-pyrrolo[2,3-d]pyrimidin-6-yl)phenyl) methacrylamide]
  IC50: 10.2 nM

## CN(C)C/C=C/C(=O)Nc1ccc(-c2c(-c3ccc(N=S4(=O)CCCCC4)c(F)c3)c3c(N)ncnc3n2C)cc1 [Compound 16, (E)-N-(4-(4-amino-5-(3-fluoro-4-((1-oxotetrahydro-2H-1 λ^6-thiopyran-1-ylidene)amino)phenyl) -7-methyl-7H-pyrrolo [2,3-d]pyrimidin-6-yl) - phenyl) -4-(dimethylamino) -2-butenamide]
  IC50: 50.1 nM

## C=C(C)C(=O)Nc1ccc(-c2c(-c3ccc(N=S4(=O)CC5(CC5)C4)cc3)c3c(N)ncnc3n2C)c(F)c1 [Compound 72]
  IC50: 2.2 nM
